According to paper PMC7311950, “Potent Tetrahydroquinolone Eliminates Apicomplexan Parasites” (Frontiers in Cellular and Infection Microbiology, 2020):

Columns and labels:
[1] = test system: P-glycoprotein (P-gp, MDR1/ABCB1); experiment: in vitro; details: dog, MDCK-MDR1
Procedure: The effects of changing R1 as 7-Et, 7-Me, 6-CF3, or 6-Me on activity against RH strain tachyzoites, kinetic solubility, and metabolic stability were compared. Kinetic solubility and metabolic stability in human or murine liver microsomes were measured. The hERG (human Ether-à-go-go-Related) liability was also determined. The hERG gene (KCNH2) encodes a protein Kv11.1, the alpha subunit of a potassium ion channel. This channel conducts the rapid component of the delayed rectifier potassium current, IKr, which is critical for repolarization of cardiac action potentials. A reduction in hERG currents from adverse drug effects can lead to long QT interval syndromes. These syndromes are characterized by action potential prolongation, lengthening of the QT interval on surface EKG, and an increased risk for “torsade de pointes” arrhythmias and sudden death. The MDCK-MDR1 Permeability Assay was also performed. MDCK-MDR1 refers to the ability of a compound to permeate across membranes of MDCK-MDR1 (Madin Darby canine kidney [MDCK] cells with the MDR1 gene [ABCB1], the gene encoding for the efflux protein, P-glycoprotein (P-gp)) in vitro. Assessing transport in both directions (apical to basolateral and basolateral to apical) across the cell monolayers enables an efflux ratio to be determined. […] This provides a prediction of blood brain barrier (BBB) penetration potential/permeability and efflux ratio. Effect in CACO-2 (Colon Adenocarcinoma cells) as a permeability assay and on cytochrome P450 (CYP 450) were also determined. CYP enzymes catalyze oxidative biotransformation (phase 1 metabolism) of most drugs. CYP enzymes, bind to membranes in a cell (cyto) and contain a heme pigment (chrome and P) that absorbs light at a wavelength of 450 nm when exposed to carbon monoxide. Metabolism of a drug by CYP enzymes is a major source of variability in drug effect. These were measured by Chem Partners. The relative effect on HFF and parasite enzymes also were compared.
In vitro absorption, distribution, metabolism, excretion, and toxicity (ADMET) analyses of the THQ compounds were outsourced to ChemPartner Shanghai Ltd. ELQ-271 (synthesized in-house) was tested as a comparison.

PPB (human) = format: in vitro ADME; details: plasma
bovine cytochrome bc1 = target: T1, bovine cytochrome bc1 (Bos taurus, UniProt P00157); experiment: Bovine cytochrome bc1 activity assay; format: biochemical; details: read-out: Bovine Cytbc1 activity inhibition
T1 construct: Whole fresh bovine heart was collected after slaughter and transported in ice; from tissue; host or cells: bovine heart mitochondria; DDM-solubilised, DEAE-Sepharose and Sephacryl-S300 purified
Procedure: Bovine cytochrome bc1 inhibition assay was carried out in 50 mM KPi pH 7.5, 2 mM EDTA, 10 mM KCN, 30 μM equine heart cytochrome c (Sigma Aldrich), and 2.5 nM bovine cytochrome bc1 at room temperature. 20 mM inhibitors dissolved in DMSO were added to the assay at a desired concentration without prior incubation. […] The reaction was initiated by the addition of 50 μM decylubiquinol (Abcam). The reduced cytochrome c was monitored by the different absorption between 550 and 542 nm using extinction coefficient of 18.1 mM^−1 cm^−1 in a SPECTRAmax Plus 384 UV-visible Spectrometer. The initial kinetic rate is determined as a zero-order reaction and used as the specific activity of cytochrome bc1.

SMILES | Papp [1] [×10⁻⁶ cm/s] | efflux ratio [1] | fraction unbound (PPB (human)) | inhibition at 0.1 µM (bovine cytochrome bc1; 0.1 μM) [%] | inhibition at 1 µM (bovine cytochrome bc1; 1 μM) [%]
Cc1[nH]c2c(c(=O)c1-c1ccc(Oc3ccc(Cl)cc3)cc1)CCCC2 [JAG50] | > 10 | < 1.5 | – | – | –
Cc1[nH]c2c(c(=O)c1-c1ccc(Oc3ccc(OC(F)(F)F)cc3)cc1)CCCC2 [JAG21, 2-Methyl-3-(4-(4-(Trifluoromethoxy)Phenoxy)Phenyl)-5,6,7,8-Tetrahydroquinolin-4-One] | – | – | 0.001 | 36 | 63
